Measured values published in PMC10518257 (Nature Cancer, 2023).
Values joined by “and” are separate entries in the source; they are usually repeats but may differ in a detail not shown here. Equal values may be shown once. Read-outs that look alike come from different tables or passages of the source.

Tests used:
LUAD-0087AS2 PDX = experiment: PDX efficacy study; settings: LUAD-0087AS2, individual animals
[1] = molecular target: T1, panel of 255 (vepafestinib) or 256 (all other inhibitors) recombinant kinases (Homo sapiens, UniProt P35916); experiment: Kinase selectivity profiling at a single concentration (Carna Biosciences); type: biochemical; settings: 23 nM
T1 construct: purchased Carna Biosciences

[2] = molecular target: panel of 255 (vepafestinib) or 256 (all other inhibitors) recombinant kinases; experiment: as above; type: biochemical; settings: 23 nM, panel of 255 recombinant kinases
[3] = molecular target: T2, panel of 255 (vepafestinib) or 256 (all other inhibitors) recombinant kinases (Homo sapiens, UniProt P16234); experiment: as above; type: biochemical; settings: 23 nM
T2 construct: purchased Carna Biosciences

[4] = test system: HBECp53-RET cells (CCDC6-RET fusion); experiment: Growth inhibition (alamarBlue, 96 h); type: cell-based, human; settings: for raw viability signal (Source Data Fig. 3b-c): HBEC-RET, replicate sets
LUAD-0086AS3 cells = experiment: Growth inhibition (alamarBlue, 96 h); type: cell-based, human; settings: for raw viability signal (Source Data Fig. 3b-c): LUAD-0086AS3 (n=1, 3 replicates)
[5] = test system: Ba/F3 cells expressing KIF5B–RET^G810R; experiment: Growth inhibition assay in Ba/F3 cells (CellTiter-Glo, 72 h); type: cell-based; settings: Ba/3-KIF5B-RET-G810R; replicate Sets 1-3
Ba/F3-CCDC6::RET^S904F = experiment: as above; type: cell-based
[6] = Transcellular transport study, apparent permeability; settings: pig, LLC-PK1
Ba/F3-CCDC6::RET = experiment: Growth inhibition assay in Ba/F3 cells (CellTiter-Glo, 72 h); type: cell-based
LUAD-0002AS1 cells = experiment: Growth inhibition (alamarBlue, 96 h); type: cell-based, human; settings: for raw viability signal (Source Data Fig. 3b-c): LUAD-0002AS1, replicate sets
ECLC5B cells = experiment: Growth inhibition (alamarBlue, 96 h); type: cell-based, human; settings: for raw viability signal (Source Data Fig. 3b-c): ECLC5B, replicates
[7] = Homo sapiens, 96 h, read-out: IC50 for Inhibition of Growth (95% CI)

T2 sequence (P16234 24-1089): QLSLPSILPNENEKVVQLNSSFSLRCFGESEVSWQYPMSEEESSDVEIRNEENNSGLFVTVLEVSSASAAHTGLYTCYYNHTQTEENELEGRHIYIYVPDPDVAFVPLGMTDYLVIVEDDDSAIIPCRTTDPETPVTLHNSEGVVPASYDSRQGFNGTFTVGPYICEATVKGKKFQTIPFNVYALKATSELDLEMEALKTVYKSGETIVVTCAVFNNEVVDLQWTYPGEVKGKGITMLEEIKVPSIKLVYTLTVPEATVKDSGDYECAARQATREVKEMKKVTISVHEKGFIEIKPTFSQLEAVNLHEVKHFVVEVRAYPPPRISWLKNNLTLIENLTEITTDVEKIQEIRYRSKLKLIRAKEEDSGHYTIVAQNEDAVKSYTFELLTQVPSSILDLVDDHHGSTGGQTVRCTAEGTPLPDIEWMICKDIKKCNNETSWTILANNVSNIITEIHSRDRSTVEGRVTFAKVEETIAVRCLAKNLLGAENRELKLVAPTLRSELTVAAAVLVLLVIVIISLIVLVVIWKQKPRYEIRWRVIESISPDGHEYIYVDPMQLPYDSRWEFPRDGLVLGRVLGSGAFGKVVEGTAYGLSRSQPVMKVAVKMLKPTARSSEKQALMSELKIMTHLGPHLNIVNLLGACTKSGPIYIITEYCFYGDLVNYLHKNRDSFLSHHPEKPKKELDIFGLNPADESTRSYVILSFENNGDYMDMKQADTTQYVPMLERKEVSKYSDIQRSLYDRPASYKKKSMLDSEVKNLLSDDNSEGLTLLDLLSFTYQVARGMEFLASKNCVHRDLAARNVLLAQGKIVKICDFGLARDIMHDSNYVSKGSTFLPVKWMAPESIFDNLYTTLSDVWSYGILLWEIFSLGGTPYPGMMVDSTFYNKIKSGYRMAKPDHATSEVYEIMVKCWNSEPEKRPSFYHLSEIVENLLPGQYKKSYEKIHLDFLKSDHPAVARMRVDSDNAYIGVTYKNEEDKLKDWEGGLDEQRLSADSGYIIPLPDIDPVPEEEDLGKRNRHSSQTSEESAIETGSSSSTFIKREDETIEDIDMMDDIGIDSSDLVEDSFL
T1 sequence (P35916 25-1363): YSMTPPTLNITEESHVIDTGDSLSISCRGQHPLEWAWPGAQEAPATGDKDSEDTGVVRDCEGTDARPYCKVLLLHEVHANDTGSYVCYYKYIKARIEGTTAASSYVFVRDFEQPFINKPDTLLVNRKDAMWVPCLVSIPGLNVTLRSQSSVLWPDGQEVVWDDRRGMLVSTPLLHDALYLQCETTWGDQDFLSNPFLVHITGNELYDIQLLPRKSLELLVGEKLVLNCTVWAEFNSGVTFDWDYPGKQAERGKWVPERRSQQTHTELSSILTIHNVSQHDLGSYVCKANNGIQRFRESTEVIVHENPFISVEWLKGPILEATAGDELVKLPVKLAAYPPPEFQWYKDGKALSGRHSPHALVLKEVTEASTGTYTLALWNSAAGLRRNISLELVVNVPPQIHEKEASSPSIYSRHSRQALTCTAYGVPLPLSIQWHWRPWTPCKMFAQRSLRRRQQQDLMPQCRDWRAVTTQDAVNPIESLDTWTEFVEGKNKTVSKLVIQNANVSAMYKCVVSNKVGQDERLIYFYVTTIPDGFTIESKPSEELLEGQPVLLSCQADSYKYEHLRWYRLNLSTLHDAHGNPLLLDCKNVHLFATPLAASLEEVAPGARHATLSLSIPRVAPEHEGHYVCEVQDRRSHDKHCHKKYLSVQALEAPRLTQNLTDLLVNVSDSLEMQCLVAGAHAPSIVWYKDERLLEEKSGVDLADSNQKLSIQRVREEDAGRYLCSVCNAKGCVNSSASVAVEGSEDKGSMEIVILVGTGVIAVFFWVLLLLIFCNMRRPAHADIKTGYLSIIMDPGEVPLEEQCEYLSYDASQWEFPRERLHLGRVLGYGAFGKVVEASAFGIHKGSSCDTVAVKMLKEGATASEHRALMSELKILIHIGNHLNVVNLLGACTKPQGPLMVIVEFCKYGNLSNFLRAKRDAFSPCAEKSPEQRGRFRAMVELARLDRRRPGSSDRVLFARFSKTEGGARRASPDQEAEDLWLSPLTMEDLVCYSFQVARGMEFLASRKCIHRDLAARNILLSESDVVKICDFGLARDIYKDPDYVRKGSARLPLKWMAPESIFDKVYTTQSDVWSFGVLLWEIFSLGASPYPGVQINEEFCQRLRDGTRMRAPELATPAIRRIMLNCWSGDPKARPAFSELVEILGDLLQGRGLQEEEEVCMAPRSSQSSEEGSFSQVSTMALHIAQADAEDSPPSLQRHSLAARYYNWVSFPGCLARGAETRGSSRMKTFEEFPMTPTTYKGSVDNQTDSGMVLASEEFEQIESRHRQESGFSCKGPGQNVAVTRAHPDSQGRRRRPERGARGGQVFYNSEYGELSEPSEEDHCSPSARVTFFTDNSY

Compound: COCc1ccc(NC(=O)c2c(C#CCN3CCOCC3)n(C3(C)CC3)c3ncnc(N)c23)cc1 [Vepafestinib, 4-amino-N-[4-(methoxymethyl)phenyl]-7-(1-methylcyclopropyl)-6-[3-(morpholin-4-yl)prop-1-yn-1-yl]-7H-pyrrolo[2,3-d]pyrimidine-5-carboxamide]
- Tumor volume (LUAD-0087AS2 PDX; 50 mg/kg BID, treatment day 45): 118.01 and 222.58 and 176.98 and 181.58 and 91.61
- Tumor volume (LUAD-0087AS2 PDX; 100 mg/kg QD, treatment day 14): 102.07 and 91.61 and 107.17 and 110.58 and 103.77
- Tumor volume (LUAD-0087AS2 PDX; 100 mg/kg QD, treatment day 17): 102.07 and 81.71 and 90.28 and 103.77 (2×)
- Tumor volume (LUAD-0087AS2 PDX; 100 mg/kg QD, treatment day 21): 107.17 (2×) and 113.1 and 118.75 and 114.83
- Tumor volume (LUAD-0087AS2 PDX; 100 mg/kg QD, treatment day 24): 93.59 and 83.07 and 77.95 and 87.03 and 98.2
- Tumor volume (LUAD-0087AS2 PDX; 100 mg/kg QD, treatment day 29): 100.37 and 99.78 and 80.89 and 91.87 and 98.2
- Tumor volume (LUAD-0087AS2 PDX; 100 mg/kg QD, treatment day 32): 103.92 and 108.88 and 90.28 and 95.24 and 107.17
- Tumor volume (LUAD-0087AS2 PDX; 100 mg/kg QD, treatment day 35): 109.36 and 120.29 and 95.03 and 107.44 and 110.58
- Tumor volume (LUAD-0087AS2 PDX; 100 mg/kg QD, treatment day 38): 109.36 and 120.29 and 114.83 and 118.75 and 122.12
- Tumor volume (LUAD-0087AS2 PDX; 100 mg/kg QD, treatment day 42): 109.36 and 126.29 and 116.65 and 126.64 and 138.88
- Tumor volume (LUAD-0087AS2 PDX; 100 mg/kg QD, treatment day 45): 109.36 and 126.29 and 120.64 and 126.64 and 138.88
- % Inhibiton FLT4 [1]: 46.9%
- kinases inhibited by >50% [2]: one and RET was the only kinase inhibited by >50%
- % Inhibiton PDGFRα [3]: 12.4%
- raw viability signal (Source Data Fig. 3b-c) ([4]; 0.01 nM): 18957.1 and 8244.84 and 10678.9 and 16541.7
- raw viability signal (Source Data Fig. 3b-c) ([4]; 0.1 nM): 17482 and 10966 and 10873.4 and 16651.3
- raw viability signal (Source Data Fig. 3b-c) ([4]; 1 nM): 17298.8 and 10767.5 and 11130.6 and 16468.7
- raw viability signal (Source Data Fig. 3b-c) ([4]; 10 nM): 5536.96 and 10230.4 and 9156.41 and 16208.5
- raw viability signal (Source Data Fig. 3b-c) ([4]; 100 nM): 4544.29 and 6087.71 and 3084.29 and 6640.5
- raw viability signal (Source Data Fig. 3b-c) ([4]; 1000 nM): 2966.02 and 1973.98 and 3130.94 and 5863.55
- raw viability signal (Source Data Fig. 3b-c) ([4]; 10000 nM): 3124.48 and 1006.63 and 1869.57 and 4627.96
- IC50 ([4]; Homo sapiens, 96 h, read-out: IC50 for Inhibition of Growth (95% CI), HBECp53-RET, alamarBlue, 96 h): 0.065 µM
- IC50 (LUAD-0086AS3 cells; [7]): 0.116 µM
- raw viability signal (Source Data Fig. 3b-c) (LUAD-0086AS3 cells; 0.01 nM): 16237.2 and 19485.2 and 18210.6
- raw viability signal (Source Data Fig. 3b-c) (LUAD-0086AS3 cells; 0.1 nM): 16457.6 and 20449.8 and 20222
- raw viability signal (Source Data Fig. 3b-c) (LUAD-0086AS3 cells; 1 nM): 16743.2 and 19056.2 and 19367.3
- raw viability signal (Source Data Fig. 3b-c) (LUAD-0086AS3 cells; 10 nM): 12680.1 and 18071 and 16933
- raw viability signal (Source Data Fig. 3b-c) (LUAD-0086AS3 cells; 100 nM): 5830.14 and 9884.36 and 9286.4
- raw viability signal (Source Data Fig. 3b-c) (LUAD-0086AS3 cells; 1000 nM): 6803.13 and 8603.1 and 8594.97
- raw viability signal (Source Data Fig. 3b-c) (LUAD-0086AS3 cells; 10000 nM): 3602.32 and 4605.44 and 4993.57
- GI50 [5]: 0.0242 µM and 0.0467 µM
- GI50 (Ba/F3-CCDC6::RET^S904F; BaF3/CCDC6-RET, read-out: GI50 values, Ba/F3-CCDC6::RET S904F, individual sets (replicate experiments)): 0.0285 µM
- GI50 (Ba/F3-CCDC6::RET^S904F; Mus musculus, BaF3, 72 h, read-out: GI50 value (Mean ± SD), Ba/F3-CCDC6::RET^S904F, CellTiter-Glo, 72 h): 0.0247 ± 0.005 µM
- GI50 (Ba/F3-CCDC6::RET^S904F; read-out: GI50 values, Ba/F3-CCDC6::RET S904F, individual sets (replicate experiments)): 0.0267 µM and 0.0191 µM
- Papp at 3 h, 1 μM [6]: 24 ×10⁻⁶ cm/s
- GI50 (Ba/F3-CCDC6::RET; BaF3/CCDC6-RET, 72 h, read-out: GI50 value (Mean ± SD), Ba/F3-CCDC6::RET, CellTiter-Glo, 72 h): 0.022 ± 0.0093 µM
- GI50 (Ba/F3-CCDC6::RET; read-out: GI50 values, Ba/F3-CCDC6::RET, individual sets (replicate experiments)): 0.014 µM and 0.0322 µM and 0.0199 µM
- IC50 (LUAD-0002AS1 cells; [7]): 0.006 µM
- raw viability signal (Source Data Fig. 3b-c) (LUAD-0002AS1 cells; 0.01 nM): 16782.2 and 12668.5 and 13089
- raw viability signal (Source Data Fig. 3b-c) (LUAD-0002AS1 cells; 0.1 nM): 15237.2 and 13944 and 12774.4
- raw viability signal (Source Data Fig. 3b-c) (LUAD-0002AS1 cells; 1 nM): 14596.9 and 11925.3 and 12443
- raw viability signal (Source Data Fig. 3b-c) (LUAD-0002AS1 cells; 10 nM): 5820.38 and 4419.86 and 6264.61
- raw viability signal (Source Data Fig. 3b-c) (LUAD-0002AS1 cells; 100 nM): 2459.35 and 2506.15 and 3193.42
- raw viability signal (Source Data Fig. 3b-c) (LUAD-0002AS1 cells; 1000 nM): 1853.86 and 1731.17 and 3413.68
- raw viability signal (Source Data Fig. 3b-c) (LUAD-0002AS1 cells; 10000 nM): 1864.65 and 2510.44 and 3189.66
- raw viability signal (Source Data Fig. 3b-c) (ECLC5B cells; 0.01 nM): 9826.46 and 7916.25 and 19010.8
- raw viability signal (Source Data Fig. 3b-c) (ECLC5B cells; 0.1 nM): 10351 and 8612.52 and 20662.3
- raw viability signal (Source Data Fig. 3b-c) (ECLC5B cells; 1 nM): 10751.4 and 8385.29 and 18478.3
- raw viability signal (Source Data Fig. 3b-c) (ECLC5B cells; 10 nM): 4019.62 and 1873.82 and 8615.92
- raw viability signal (Source Data Fig. 3b-c) (ECLC5B cells; 100 nM): 3307.08 and 1329.05 and 4450.27
- raw viability signal (Source Data Fig. 3b-c) (ECLC5B cells; 1000 nM): 2927.89 and 1305.13 and 4874.13
- raw viability signal (Source Data Fig. 3b-c) (ECLC5B cells; 10000 nM): 1756.2 and 2012.52 and 6114.45
- IC50 (ECLC5B cells; [7]): 0.007 µM
